Experimental data as given in US20210332436A1, “STEM CELL-BASED MULTIPLEX METHODS AND COMPOSITIONS” (MEMORIAL SLOAN-KETTERING CANCER CENTER, priority 2018, published 2021).

Legend:
[1] = test system: day 35 MIX30 PFC cultures; assay: Multiplex PFC WNT response assay (CHIR99021 treatment of pooled PFC cultures, stem cell proliferation/enrichment readout); assay type: cell-based, human; conditions: 3 μM for 10 days, vs untreated
Text: In addition to probing developmental phenotypes related to cell fate specification and proliferation, the present multiplex platform also allows us to evaluate the cell-type specific activity of key molecular pathways. The WNT/βcatenin pathway is a critical regulator of stem cell proliferation and neurogenesis during cortical development (Hirabayashi et al., Development 131, 2791-2801 (2004); Munji et al., J Neurosci 31, 1676-1687 (2011); Chenn, Organogenesis 4, 76-80 (2008)) and is a central node among a network of autism-related genes (Packer, Mol Psychiatry, (2016); Krumm et al., Trends Neurosci 37, 95-105 (2014); Gilman et al., Neuron 70, 898-907 (2011)). It was therefore tested autism lines for the ability to respond to WNT/βcatenin signaling by treating day 35 MIX30 PFC cultures with the GSK3α/β inhibitor CHIR99021 (3 μM) for 10 days, using stem cell proliferation as an initial readout of WNT activity (Kim et al., Nat Neurosci 12, 1390-1397 (2009)) (FIG. 3a). […] Lineage specificity of the WNT-response phenotype was assessed by differentiating the MIX30 library to CD49d^+ cranial neural crest (CNC) precursors ([…] et al., Nature 531, 105-109 (2016)), whose specification is dependent on WNT/β catenin activity (Dorsky et al., Nature 396, 370-373 (1998)) (FIG. 3c, FIGS. 10d-10f). […] DNA was quantified using a fluorometer (Qubit 3.0, Thermo Q33216). […]

[2] = test system: Day 20 PFC cultures; assay: Single genotype analysis of WNT responsiveness during PFC development (proliferation Ki67/DAPI and cell-cycle re-entry Ki67+EdU+/Ki67+); assay type: cell-based, human
Protocol: FIGS. 15a-15d provide additional data related to WNT assays. FIG. 15a provides PFC WNT response of autism lines relative to a negative control (UMOD). WNT response is measured by relative change in stem cell enrichment versus an untreated control. Red bars indicate significant increases or decreases in WNT response (FDR<0.05). FIG. 15b provides efficiency of neural crest specification relative to a negative control (UMOD). Red bars indicate significant increases or decreases in WNT response (FDR<0.05). FIG. 15c provides schematic of quantification for zebrafish jaw development at 7 dpf. A straight line is drawn from the top of the eyes, and second line is then drawn to the middle of the upper jaw. The angle between the two lines (0) is measured using ImageJ. A cut-off value of −1 s.d. (red line) from the mean (green line) of the no injection group was used to define hypomorphic animals. Graphs show raw data that underlie the hypomorph quantification in FIG. 3e. p<0.0001 for group differences calculated by non-parametric Kruskall-Wallis test, followed by dunn's test for multiple comparisons CTNNB1 p=0.0007, ANKRD11 p=0.0013, CUL3 p=0.0073, KMT2C p=0.0007. dpf, Days post fertilization. FIG. 15d provides a single genotype analysis of WNT responsiveness during PFC development. […] Day 20 PFC cultures were treated with CHIR99021 (0.6 μM) for 2 days or left untreated. At day 22, cultures were pulsed with EdU using the EdU Click-iT system according to manufacturer protocol (ThermoFisher Scientific C10640). Briefly, cells were treated with EdU for 1 hour, dissociated with Accutase for 30 minutes at 37 C, and passaged onto laminin/fibronectin coated plates at a density of 200,000-400,000 cells/cm2 in the presence of ROCK inhibitor (Y-27632, 10 μM, Tocris 1254). Cell were fixed 18 hours later and fixed for immunocytochemistry. ImageJ was used for cell counting. Images were thresholded to define individual cells (particles) and cells were counted using the analyze particle function.

[3] = 5/5 class 1 lines compared to MEL1, 0.6 μM for 2 days

Cc1c[nH]c(-c2cnc(NCCNc3ccc(C#N)cn3)nc2-c2ccc(Cl)cc2Cl)n1 [CHIR99021]
stem cell proliferation (readout of WNT activity) [1]: enhanced stem cell proliferation
proliferation response to CHIR (CHIR/Baseline, Ki67/DAPI) [2, 3]: blunted proliferation response
rates of cell-cycle re-entry (Ki67+EdU+/Ki67+) in response to CHIR [2, 3]: blunted response
rates of cell-cycle re-entry (Ki67+EdU+/Ki67+) in response to CHIR ([2]; control lines, 0.6 μM for 2 days): increased rates of cell-cycle re-entry
